In patent publication US5109024A, “Polyamine derivatives as antineoplastic agents” (Merrell Dow Pharmaceuticals Inc., priority 1991, dated 1992):
Where a name gives a salt, the structure may show the parent alone. Read-outs that look alike come from different tables or passages of the source.

Key:
L1210 leukemia [1] = conditions: 6.25 mg/Kg × 4 doses per day, days 3 thru 7, n=6, Edwards et al., cited from earlier work
L1210 leukemia [2] = assay: animal or person; format: in vivo, mice (BDFl male); conditions: Mus musculus, L1210, ip, 10 mg/Kg/day, read-out: % T/C (mean survival time treated/mean survival time control ×100)
Description: The following study of the antitumor activity of the compounds of formula (I) against L1210 leukemia illustrates this aspect of the present invention.
Groups of 6 mice (BDFl male) were inoculated i.p. with 10^5 L1210 leukemia cells on day 0. Test compounds or vehicle (Control group) were administered at the indicated doses starting on day 1 and continuing through day 5 or 9. Relative survival time was determined and expressed as % T/C (mean survival time treated/mean survival time control ×100). Presence or absence of delayed toxicity was determined by an examination o the animal's external appearance and behavior during the study. For example, an emaciated condition is a key indication of delayed toxicity in these studies.

[3] = test system: 3LL (Lewis lung) carcinoma cells; assay: Experimental Murine Lung Metastasis (3LL Lewis lung carcinoma cells injected into footpad); format: in vivo, C57BL/6 mice
Description: C57BL/6 mice were injected into the footpad on day 0 with 3LL (Lewis lung) carcinoma cells (1×10^6) so as to induce lung metastasis. Lung metastatic foci were determined as described by Sunkara et al. [J.Biological Response Modifiers 8, 170 (1989)]. Briefly, injected animals were randomly allocated to one of two treatment groups, 6 animals per group, and test compound or vehicle (Control) was administered i.p. at the doses and times indicated in Table 4. Lung metastatic foci were determined on day 18.

[4] = test system: MCA-38 colon adenocarcinoma cells; assay: Experimental Murine Liver Metastasis (MCA-38 colon adenocarcinoma cells injected intrasplenically); format: in vivo, C57BL/6 mice; conditions: i.p., day 14; for Liver Metastasis No. foci ± S.E.: n = 6, p < 0.001, control 220.6 ± 22.2
Description: C57BL/6 mice were injected intrasplenically on day 0 with MCA-38 colon adenocarcinoma cells (1×10^5) so as to induce hepatic metastasis. Liver metastatic foci were determined as described by Bowlin et al. [Cancer Res. 50, 5460 (1990)]. Briefly, injected animals were randomly allocated to one of three treatment groups, 6 animals per group, and test compound or vehicle (Control) was administered i.p. at the doses and times indicated in Table 3. Liver metastatic foci were determined on day 14.

L1210 leukemia [5] = assay: Curative Effect Against Advanced L1210 Leukemia (survival, cures); format: in vivo, mice (BDFl male); conditions: for Cured (mice surviving beyond day 45) / Survival in days (Mean ± S.E.): n=5
Description: In an additional study, groups of 5 mice (BDFl male) were inoculated i.p. with 10^5 L1210 leukemia cells on day 0. N,N'-bis[3-(ethylamino)propyl]-1,7-diaminoheptane or vehicle (Control group) were administered at the indicated doses and on the indicated days. […] In a similar study, N,N'-bis[3-(amino)propyl]-1,8-diaminooctane, administered at a dose of […] on days 3 through 7, provided a %T/C of 350 but no cures in 6 animals [Edwards et al., J. Med. Chem. 33, 1369 (1990), See Table II infra].

[6] = 5 mg/Kg × 4 doses per day, days 3, 4, 5
[7] = 5 mg/Kg × 4 doses per day, days 3, 4
[8] = 10 mg/Kg × 4 doses per day, days 3, 4

NCCCNCCCCCCCCNCCCN [Compound 26547, N,N'-bis[3-(amino)propyl]-1,8-diaminooctane]
% T/C (L1210 leukemia [1]; J. Med. Chem. 33, 1369 (1990)): 350%
Cured (L1210 leukemia [1]; J. Med. Chem. 33, 1369 (1990)): 0/6
Cured (L1210 leukemia [1]; J. Med. Chem. 33, 1369 (1990), listed as N,N'-bis[3-(amino)propyl]-1,8-diaminooctane): no cures
Delayed toxicity (L1210 leukemia [1]): exhibited delayed toxicity
response vs control in vivo at 10 mg/kg (L1210 leukemia [2]; days 1-9): 171%

CNCCCNCCCCCCCCNCCCNC [Compound 27259, N,N'-Bis(3-(methylamino)propyl)-1,8-octanediamine tetrahydrochloride]
response vs control in vivo at 10 mg/kg (L1210 leukemia [2]; days 1-9): 172%

CCNCCCNCCCCCCCCNCCCNCC [Compound 27393, N,N'-Bis(3-(ethylamino)propyl)-1,8-octanediamine tetrahydrochloride]
response vs control in vivo at 10 mg/kg (L1210 leukemia [2]; days 1-9): 112%

CNCCCNCCCCCCCNCCCNC [Compound 28249, N,N'-bis[3-(methylamino)propyl]-1,7-diaminoheptane]
response vs control in vivo at 10 mg/kg (L1210 leukemia [2]; days 1-5): 110%

CCNCCCNCCCCCCCNCCCNCC [Compound 28314, N,N'-Bis[3-(ethylamino)propyl]-1,7-heptanediamine]
Lung Metastasis % Inhibition ([3]; days 1-5, 10 mg/Kg, i.p., day 18): 100%
Lung Metastasis No. foci ± S.E. ([3]; days 1-5, 10 mg/Kg, i.p., day 18, n = 6, control 21.3 ± 11.5): 0 foci
antimetastatic effect in inhibiting lung metastasis ([3]; results as presented in Table 4): antimetastatic effect
Liver Metastasis % Inhibition ([4]; days 1-5, 5 mg/Kg): 87%
Liver Metastasis No. foci ± S.E. ([4]; days 1-5, 5 mg/Kg): 29.2 ± 7.7 foci
Liver Metastasis % Inhibition ([4]; days 3-8, 5 mg/Kg): 72%
Liver Metastasis No. foci ± S.E. ([4]; days 3-8, 5 mg/Kg): 62.3 ± 17.5 foci
response vs control in vivo at 10 mg/kg (L1210 leukemia [2]; days 1-5): 200%
Cured (mice surviving beyond day 45) (L1210 leukemia [5]; [6]): 5/5
Survival in days (Mean ± S.E.) (L1210 leukemia [5]; [6]): > 45 days
Cured (mice surviving beyond day 45) (L1210 leukemia [5]; [7]): 0/5
Survival in days (Mean ± S.E.) (L1210 leukemia [5]; [7]): 16.0 ± 4.0 days
Cured (mice surviving beyond day 45) (L1210 leukemia [5]; [8]): 5/5
Survival in days (Mean ± S.E.) (L1210 leukemia [5]; [8]): > 45 days
Curative effect against L1210 leukemia in vivo (L1210 leukemia [5]; at 20 and 40 mg/Kg/day): effective in providing a curative effect

CC(N)CCNCCCCCCCNCCC(C)N (centres unmarked) [Compound 28516, N,N'-bis[3-(amino)butyl]-1,7-diaminoheptane, reference compound]
response vs control in vivo at 10 mg/kg (L1210 leukemia [2]; days 1-5): 200%

CNCC(C)CNCCCCCCCNCC(C)CNC (centres unmarked) [Compound 28600, N,N'-bis[3-(methylamino)-2-(methyl)propyl]-1,7-diaminoheptane]
response vs control in vivo at 10 mg/kg (L1210 leukemia [2]; days 1-5): 132%

CNC(C)CCNCCCCCCCNCCC(C)NC (centres unmarked) [Compound 101060, N,N'-Bis[3-(methylamino)butyl]-1,7-diaminoheptane tetrahydrochloride]
response vs control in vivo at 10 mg/kg (L1210 leukemia [2]; days 1-5): 180%
